# Experimental data: US20210262025A1, “MULTIPLEXED IN VIVO DISEASE SENSING WITH NUCLEIC ACID-BARCODED REPORTERS” (Massachusetts Institute of Technology, priority 2020, published 2021)
# “Also recorded” adds a separate entry of the source. Strand notation (5' to 3'): a small letter for the sugar, then the base; units joined by * are phosphorothioate-linked, units joined directly phosphodiester-linked; [ ] holds rarer units or linkages, { } end groups; capitals alone tell only the bases. Primed or numbered codes have the meaning given here. Where no end group is shown, it is not given here. [ ]: non-standard residue; d: D form. The star is where a group is joined. 5FAM = O=C1OC2(c3ccc(O)cc3Oc3cc(O)ccc32)c2ccc(C(=O)*)cc21; PEG2′ = not defined here; d = 2'-deoxy (DNA); CPQ2 = quencher
# T1: FRET-PAP11
# T1 sequence: GGGSGRSANAKGKGC
# Assays:
# LbaCas12a [1] = assay: Cas12a fluorescent cleavage assay, DNA activators in solution; type: biochemical, Lachnospiraceae bacterium ND2006
# Source text: (§1) In particular, the Cas12a from Lachnospiraceae bacterium ND2006 (LbaCas12a, UniProtKB Accession No. A0A182DWE3) assembled with guide CRISPR RNA sequences (crRNAs) recognizes 1) a T nucleotide-rich protospacer-adjacent motif (PAM) to target double-stranded DNA (dsDNA), or 2) single-stranded DNA (ssDNA) through sequence complementarity in a PAM-independent manner, and unleashes a robust, nonspecific ssDNA trans-cleavage activity that can be monitored using a fluorophore (F)-quencher (Q)-labeled reporter (FIG. 2A) (Chen et al. Science 360, 436-439 (2018)). […] In Table 6, activation of Cas12a with native and modified DNA oligos was quantified in the Cas12a fluorescent cleavage assay. […]
# (§2) LbCas12a (final concentration 100 nM, New England Biolabs) was incubated with 1× NEB BUFFER™ 2.1, crRNA (250 nM, IDT) and complementary DNA activators (4 nM unless specifically described, IDT, in solution or spiked in urine) or urine samples collected from experimental animals at 37° C. for 30 min. […] LbCas12a activation was detected at 37° C. every 2 min for 3 hours by measuring fluorescence with plate reader Tecan Infinite Pro M200 (λex: 485 nm and λem: 535 nm). Fluorescence for background conditions (either no DNA activator input or no crRNA conditions) were run with each assay to generate background fluorescence as negative controls. […]
# LbaCas12a [2] = assay: Cas12a fluorescent cleavage assay with urine of mice injected with DNA activators; type: in vivo, Lachnospiraceae bacterium ND2006; settings: urine collected after 1 h added to reaction
# Source text: as §1, §2
# tumor tissue homogenates = assay: Tissue lysate proteolytic cleavage assay of FRET-paired peptide substrates; type: biochemical, Balb/c mice; settings: tumor-bearing or healthy lung tissue homogenates, ex vivo
# Protocol: FIGS. 6A-6E show experiments relating to portable monitoring invasive CRC using DNA-encoded multiplex synthetic urine biomarkers. […] Peptide cleavage kinetics were monitored and cleavage rates were plotted (n=5 mice per group; ±SEM; unpaired t-test with Welch's correction, **P<0.01, ****P<0.0001). […] All urine samples were collected at 1 h after sensor administration. Cas12a trans-cleavage assays were performed against each DNA-barcode with the fluorophore-quencher paired reporter. Initial reaction velocity (V0) of the Cas12a trans-cleavage assays were calculated and normalized to that of saline injected control animals (n=8 or 10 mice per group; ±SEM; unpaired t-test with Welch's correction, *P<0.05, **P<0.01). The initial reaction velocity (V0) refers to the slope of the curve at the beginning of a reaction. […] Band intensities were quantified using ImageJ. […] ROC analysis utilized ratio of quantified cleaved reporter band intensity over its corresponding control band intensity. Dashed line represents an AUC of 0.5, and a perfect AUC is 1.0.
# Tissue samples were homogenized in PBS and centrifuged at 4° C. for 5 min at 6,000×g. Supernatant was further centrifuged at 14,000×g for 25 min at 4° C. Protein concentration was measured using ThermoFisher BCA Protein Assay Kit and prepared at 2 mg/mL prior to assay. Assays were performed in the 384-well plate in triplicate in enzyme-specific buffer with peptides (1 μM) and cell lysates (0.33 mg/mL) in 30 μL at 37° C. Fluorescence was measured at Ex/Em 485/535 nm using a Tecan Infinite 200pro microplate reader (Tecan). Signal increase at 60 min was used across conditions.
# [3] = system: serine and metalloproteases; assay: Recombinant protease substrate cleavage assay; type: biochemical
# Protocol: Fluorogenic protease substrates with fluorophore (FAM) and quencher (CPQ2) were synthesized by CPC Scientific Inc. Recombinant proteases were purchased from Enzo Life Sciences and R&D Systems. Assays were performed in the 384-well plate in triplicate in enzyme-specific buffer with peptides (1 μM) and proteases (40 nM) in 30 μL at 37° C. Fluorescence was measured at Ex/Em 485/535 nm using a Tecan Infinite 200pro microplate reader (Tecan). Signal increase at 60 min was used across conditions.
# FRET-PAP11 = system: T1, FRET-PAP11
# cMET = biological target: T2, cMET (human, UniProt P08581 25-1390); assay: in vivo biodistribution (IVIS imaging) of Cy7-labelled nanobody after i.v. injection into nude mice bearing cMET-expressing PC-3 xenografts
# T2 construct: whole, on cells; The target is presented on cMET- and PLAU-expressing tumors derived from PC-3 cells in nude mice; It is not a purified protein
# subcutaneous PC-3 tumors = system: subcutaneous PC-3 tumors; parameters: species or system nude mice; settings: mouse, in vivo
# Protocol: Studies were performed in experimental animals with near-infrared dye labeled agents to minimize interference from autofluorescent background. Balb/c mice were intravenously injected with Cy5-labeled modified or native DNA molecules at 1 nmol per mouse, n=3 per condition. Urine samples from each mouse was collected at 30 min, 1, 2, 3, 4 hours after injection. C-met nanobodies were coupled with Sulfo-Cyanine7 NHS ester (Lumiprobe), reacted overnight, purified by spin filtration and injected into PC-3 tumor-bearing nude mice (1.5 nmol dye eq. of protein) via i.v. injection. After 24 hours, mice were euthanized and necropsy was performed to remove the tumors, lungs, heart, kidneys, liver, and spleen. Urine, blood and organs were scanned using IVIS Imaging Systems and ODYSSEY® CLx (LI-COR). Organ fluorescence was quantified in ImageStudio of ODYSSEY® CLx. Blood circulatory kinetics were monitored in Balb/c mice by serial blood draws at 10 min, 30 min, 120 min and 180 min after i.v. injection of Cy5-labeled DNA or PEG at 1 nmol dye per mouse. Blood for pharmacokinetics measurements was collected using tail vain bleeds. Blood was diluted in PBS with 5 mM EDTA to prevent clotting, centrifuged for 5 min at 5,000×g, and fluorescent reporter concentration was quantified in 384-well plates relative to standards (LI-COR ODYSSEY® CLx).
# [4] = Solubility of purified recombinant nanobody; type: physicochemical; settings: after affinity and size-exclusion chromatography
# Source text: One major challenge for diagnosis and therapy of cancer is tailoring multiple disease signatures, which are defined by biological differences spanning genetic, transcriptomic, and proteomic differences between tumor and healthy tissue, while minimizing off-target effects (Hunter, K. Nature reviews. Cancer 2006, 6, 141). To this end, a tumor-targeting nanobody was re-engineered to construct protease-activatable nanobodies through programmable genetic encoding (FIGS. 5A-5B). Protease-activatable nanobodies were constructed by inserting a well characterized PLAU substrate (PQ2: GGSGRSANAK (SEQ ID NO: 3)) with an unpaired cysteine for one-step site-specific labeling of cargos via a thio-ether bond (see, e.g., Masa et al., Bioconjugate chemistry 2014, 25, 979). The cysteine was introduced at the carboxyl terminus, positioning the conjugation-site on the opposite side of the antigen-binding region to avoid antigen binding interference. To prevent possible misfolding caused by the internal disulfide bond present in the Nb, the peptide substrate with cysteine is spaced by a rigid linker (SPSTPPTPSPSTPP (SEQ ID NO: 6)) from the Nb sequence.
# T2 sequence (P08581 25-1390): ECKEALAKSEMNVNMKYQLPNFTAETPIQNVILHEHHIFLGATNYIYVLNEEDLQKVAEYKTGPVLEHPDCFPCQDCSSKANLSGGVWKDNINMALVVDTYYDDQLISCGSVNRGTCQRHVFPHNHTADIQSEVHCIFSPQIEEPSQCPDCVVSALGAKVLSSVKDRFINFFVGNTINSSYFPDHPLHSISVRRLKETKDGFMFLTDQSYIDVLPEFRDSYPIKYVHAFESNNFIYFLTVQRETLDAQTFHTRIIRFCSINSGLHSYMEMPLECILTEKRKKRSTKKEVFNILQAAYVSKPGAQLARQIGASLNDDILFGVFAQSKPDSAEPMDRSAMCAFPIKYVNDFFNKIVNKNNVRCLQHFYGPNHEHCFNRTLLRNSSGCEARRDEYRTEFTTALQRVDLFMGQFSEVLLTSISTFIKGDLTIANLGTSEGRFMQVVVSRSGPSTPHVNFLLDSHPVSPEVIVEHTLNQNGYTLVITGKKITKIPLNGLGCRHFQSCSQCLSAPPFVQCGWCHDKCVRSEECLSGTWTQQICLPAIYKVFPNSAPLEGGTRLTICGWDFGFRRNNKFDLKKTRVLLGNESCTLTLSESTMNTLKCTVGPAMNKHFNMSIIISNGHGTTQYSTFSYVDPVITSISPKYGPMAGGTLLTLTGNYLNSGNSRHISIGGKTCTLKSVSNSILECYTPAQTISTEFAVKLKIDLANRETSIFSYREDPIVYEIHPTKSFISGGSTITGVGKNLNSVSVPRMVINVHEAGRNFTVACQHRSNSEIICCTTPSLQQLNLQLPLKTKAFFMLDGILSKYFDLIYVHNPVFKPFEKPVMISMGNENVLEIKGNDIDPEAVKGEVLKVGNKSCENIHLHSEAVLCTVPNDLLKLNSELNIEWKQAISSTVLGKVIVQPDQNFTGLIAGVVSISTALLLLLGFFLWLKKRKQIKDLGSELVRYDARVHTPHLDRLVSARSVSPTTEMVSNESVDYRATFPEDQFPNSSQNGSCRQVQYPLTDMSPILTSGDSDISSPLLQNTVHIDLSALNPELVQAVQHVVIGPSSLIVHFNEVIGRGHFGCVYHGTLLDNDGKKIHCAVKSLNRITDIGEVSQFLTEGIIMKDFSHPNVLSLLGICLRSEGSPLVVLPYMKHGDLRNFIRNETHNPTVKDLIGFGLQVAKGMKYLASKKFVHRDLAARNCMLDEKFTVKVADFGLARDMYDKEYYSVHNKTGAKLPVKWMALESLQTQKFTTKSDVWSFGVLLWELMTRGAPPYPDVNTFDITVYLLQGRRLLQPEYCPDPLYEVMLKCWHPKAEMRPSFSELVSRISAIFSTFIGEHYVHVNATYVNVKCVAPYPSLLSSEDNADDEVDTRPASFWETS
molecule,measurement,setting,value
10 mer: native ssDNA activator CGTAACGATC (SEQ ID NO: 28) (unmodified DNA),Native DNA in vitro (V0),"LbaCas12a [1]; initial reaction velocity, 4 nM of native DNA activator per reaction",0.00
same,Native DNA in vivo (V0),LbaCas12a [2]; 1 nmol native DNA activator injected into healthy Balb/c mice,0.00
"Mod 10 mer: fully phosphorothioate-modified ssDNA activator, SEQ ID NO: 35 (DNA dC*dG*dT*dA*dA*dC*dG*dA*dT*dC)",Modified DNA in vitro (V0),"LbaCas12a [1]; initial reaction velocity (slope at beginning of reaction), 4 nM of phosphorothioate-modified DNA activator per reaction",0.01
same,Modified DNA in vivo (V0),LbaCas12a [2]; 1 nmol modified DNA activator injected into healthy Balb/c mice,0.01
FRET-PAP7: 5FAM-GGPLGVRGKK(CPQ2)-PEG2-GC (SEQ ID NO: 61) (5FAM-GGPLGVRGKK(CPQ2)[PEG2′]GC),cleavage by tissue homogenates,tumor tissue homogenates,specifically cleaved
FRET-PAP13: 5FAM-GGVPRGG-K(CPQ2)-PEG2-GC (SEQ ID NO: 67) (5FAM-GGVPRGGK(CPQ2)[PEG2′]GC),cleavage by tissue homogenates,tumor tissue homogenates,specifically cleaved
FRET-PAP9: 5FAM-GGfPRSGGGK(CPQ2)-PEG2-GC (SEQ ID NO: 63),cleavage by recombinant proteases in vitro,[3],cleaved by serine and metalloproteases in vitro
same,cleavage by tissue homogenates,tumor tissue homogenates,specifically cleaved; also recorded: distinct cleavage patterns
FRET-PAP11: 5FAM-GGGSGRSANAKG-K(CPQ2)-PEG2-GC (SEQ ID NO: 65) (5FAM-GGGSGRSANAKGK(CPQ2)[PEG2′]GC),cleavage by tissue homogenates,tumor tissue homogenates,specifically cleaved
"PLAU (urokinase-type plasminogen activator), recombinant","cleavage of FRET-paired peptide substrate by recombinant protease (fluorogenic activity assay, FIG. 13D)",FRET-PAP11,The peptide substrate specifically responded to the PCa-associated protease PLAU
"cMET nanobody (PLAU-activated, cMET-targeting nanobody) (VHH, labelled with Sulfo-Cyanine7 NHS ester for the biodistribution study (sites not given), also called C-met nanobodies; Nb-PAS) VHH: EVQLVESGGGLVQPGGSLRLSCAASGFILDYYAIGWFRQAPGKEREGVLCIDASDDITYYADSVKGRFTISRDNAKNTVYLQMNSLKPEDTGVYYCATPIGLSSSCLLEYDYDYWGQGTLVTVSS",binding result,cMET,binds
"GFP nanobody: non-targeting nanobody against GFP (Clone LaG-16) with rigid linker, PLAU substrate and cysteine, SEQ ID NO: 72 (protein) VHH: MAQVQLVESGGRLVQAGDSLRLSCAASGRTFSTSAMAWFRQAPGREREFVAAITWTVGNTILGDSVKGRFTISRDRAKNTVDLQMDNLEPEDTAVYYCSARSRGYVLSVLRSVDSYDYWGQGTQVTVSGSHHHHHHSPSTPPTPSPSTPPGSGRSANAKGGGSC",tumor trafficking upon systemic administration,subcutaneous PC-3 tumors,did not
"cMET nanobody: PLAU-activated, cMET-targeting nanobody with rigid linker, PLAU substrate and unpaired cysteine, SEQ ID NO: 71 (protein) VHH: MEVQLVESGGGLVQPGGSLRLSCAASGFILDYYAIGWFRQAPGKEREGVLCIDASDDITYYADSVKGRFTISRDNAKNTVYLQMNSLKPEDTGVYYCATPIGLSSSCLLEYDYDYWGQGTLVTVSSGSHHHHHHSPSTPPTPSPSTPPGSGRSANAKGGGSC",solubility,[4],comparable solubility with the original Nb
same,tumor trafficking upon systemic administration,subcutaneous PC-3 tumors,mediated active tumor trafficking
